{
  "source": "patent US10968214B2",
  "about": "“KRas G12C inhibitors” (Eli Lilly and Company, priority 2018, dated 2021)",
  "key": {"H358": {"test_system": "H358", "assay": "3D H358 Cell Proliferation Assay", "format": "cell-based", "conditions": "Homo sapiens, NCI-H358; H358, 3D, 96 hr; read-out: relative IC50", "description": "Human lung cancer cells, H358, (ATCC CRL-5807) are used to evaluate compound inhibition in a 3D proliferation assay. Signal reflecting cell proliferation is detected with the CellTiterGlo® 3D reagent (Promega G9683). The cells are grown in RPMI 1640 (GIBCO®) supplemented with 10% heat inactivated FBS and 0.1 mg/ml penicillin/streptomycin. H358 cells are cultured in the growth phase and five thousand cells per well are plated in a black well clear round bottom 96-well ultra-low attachment surface plate (Corning® Cat 4520) with 80 μl/well of culture media. Cells are incubated overnight at 37° C. in a humidity chamber. 20 μl/well of serially diluted test compound is added to the plate which is then incubated for 96 hr. Plates are brought to RT and an equal volume of RT CellTiterGlo® 3D reagent is added. Plates are shaken at 750 RPM for 10 min at RT After a 1 hr incubation at RT to stabilize the signal, the luminescent signal is measured on the EnVision™ plate reader. The signal is converted to percent inhibition using the following equation: % Inhibition=100−[(Test Compound Signal−Median Minimum Signal)/(Median Maximum Signal−Median Minimum Signal)×100]. The Max Signal is a control well without inhibitor."}, "SW1573": {"test_system": "SW1573", "assay": "CellTiterGlo Cell Proliferation Assay, SW1573", "format": "cell-based", "conditions": "Homo sapiens, KRas G12C, Lung, 96 hr, read-out: IC50 (μM) in 2 D cell proliferation", "description": "(§1) A panel of tumor cell lines harboring KRas G12C or other KRas mutations are collected (Table 6). All cell lines are from ATCC or other sources indicated.\n(§2) Typically cells are cultured in RPMI1640 or Dulbecco's modified Eagle's medium (DMEM, GIBCO) supplemented with 10% FBS (GIBCO, Invitrogen). For 2D culture cells (4×10^3/well) maintained in growth medium described above, are plated onto 96 well tissue culture plates Corning® Cat. 3603) a day before the treatment. For 3D culture 8000 cells/well are seeded onto 96 well ultra-low attachment tissue culture plates (Corning, #3474). The cells are treated compound for 96 hr, and then are analyzed for viability using the CellTiterGlo® Luminescent Cell Viability Assay® (Promega #G7572 for 2D and Promega #G9683 for 3D cultures) according to manufacturer's instructions and an EnVision™ plate reader. Nonlinear regression and sigmoidal dose-response curves are used to calculate the half maximal inhibitory concentration (IC50) with GraphPad Prism 4® software."}, "SW837": {"test_system": "SW837", "assay": "CellTiterGlo Cell Proliferation Assay, SW837", "format": "cell-based", "conditions": "Homo sapiens, KRas G12C, Rectum, 96 hr", "description": "as §1, §2"}, "H1975": {"test_system": "H1975", "assay": "CellTiterGlo Cell Proliferation Assay, H1975", "format": "cell-based", "conditions": "Homo sapiens, NCI-H1975, KRas wild type, lung, 96 hr", "description": "as §1, §2"}, "Calu-1": {"test_system": "Calu-1", "assay": "Combination 4 day growth assay (Cell TiterGlo), Calu-1", "format": "cell-based", "conditions": "Homo sapiens, Calu-1, 96 h, single treatment, read-out: Absolute IC50", "description": "(§3) Cell lines for this study are obtained from ATCC and grown under ATCC recommended conditions, except for LXFA-983L, which is obtained from Oncotest/Charles Rivers Laboratories, Wilmington, Mass. and D122-96, which is obtained from L. Eisenbach (Weizman Institute of Science, Rehovot, Israel)—both grown under recommended conditions. […] The proliferation assay is performed as a 4 day growth assay using Cell TiterGlo® as the readout. Briefly, cells are plated in 96-well cell culture plates and allowed to adhere overnight at 37° C. The following day, cells are treated with compounds, either single treatments or combination treatments. First, the testing compounds are serially diluted in DMSO, followed by dilution into media as a 5× concentration with 1% DMSO, and finally added to cells in media to dilute to 1×. The cells are incubated at 37° C. for 4 more days. At the end of the incubation period, Cell TiterGlo® reagent is mixed and added to the wells. After 10 minutes, the luminescence is read by a Perkin Elmer Envision instrument. Absolute IC50 values generated by a 4-parameter logistics model for the single and combination treatments are generated, followed by combination indexes for each combination treatment and cell line. The combination IC50 values are adjusted based on the total concentration of each compound when added together. […] The combination index (CI) measures the degree to which the potency of a combination therapy differs from the expected-if-additive potency and is based on the Loewe definition of additivity.\n(§4) [formula] Where • CAy and CBy are the concentrations of therapies A and B that produce an effect, y, when given in combination • ICAy and ICBy are the concentrations of A and B that produce an effect, y, when given individually The biological interpretation of the combination index is as follows: synergistic if the combination index <0.5, additive if the combination index is between 0.5 and 2, and antagonistic if the combination index is >2."}, "H23": {"test_system": "H23", "assay": "Combination 4 day growth assay (Cell TiterGlo), H23", "format": "cell-based", "conditions": "Homo sapiens, NCI-H23, 96 h, single treatment, read-out: Absolute IC50", "description": "as §3, §4"}, "UM-UC-3": {"test_system": "UM-UC-3", "assay": "Combination 4 day growth assay (Cell TiterGlo), UM-UC-3", "format": "cell-based", "conditions": "Homo sapiens, UMUC3, 96 h, single treatment, read-out: Absolute IC50", "description": "as §3, §4"}, "SW837 xenograft": {"test_system": "SW837 xenograft", "assay": "Anti-tumor growth activity, SW837 colorectal xenograft", "format": "in vivo", "conditions": "for Tumor Growth Inhibition (%) or Regression (−%): 28 Day, negative = regression"}, "MiaPaca-2 xenograft": {"test_system": "MiaPaca-2 xenograft", "assay": "Anti-tumor growth activity, MiaPaca-2 pancreatic xenograft", "format": "in vivo", "conditions": "for Tumor Growth Inhibition (%) or Regression (−%): 28 Day, negative = regression"}, "[1]": {"conditions": "read-out: IC50 (μM) in 2 D cell proliferation"}, "[2]": {"conditions": "read-out: IC50 (μM) in 3 D spheroid cell proliferation"}},
  "note": "Like-named read-outs stand apart in the source and are kept apart here.",
  "data": [
    {"compound": "C=CC(=O)N1CCN(c2ncnc3c(F)c(-c4ccc(F)c5sc(N)nc45)c(Cl)cc23)CC1", "note": "[Example 1, 1-{4-[7-(2-Amino-7-fluoro-1,3-benzothiazol-4-yl)-6-chloro-8-fluoroquinazolin-4-yl]piperazin-1-yl}prop-2-en-1-one]", "values": [
      {"measurement": "IC50", "setting": "H358", "result": "< 11.6", "unit": "nM"},
      {"measurement": "IC50", "setting": "SW1573", "result": 16.7, "unit": "µM"},
      {"measurement": "IC50", "setting": "SW837; [1]", "result": 0.169, "unit": "µM"},
      {"measurement": "IC50", "setting": "SW837; [2]", "result": 0.126, "unit": "µM"},
      {"measurement": "IC50", "setting": "H1975; [1]", "result": 18.7, "unit": "µM"},
      {"measurement": "IC50", "setting": "H1975; [2]", "result": 6.2, "unit": "µM"},
      {"measurement": "IC50", "setting": "Calu-1", "result": 14.5, "unit": "nM"},
      {"measurement": "IC50", "setting": "H23", "result": 235, "unit": "nM"},
      {"measurement": "IC50", "setting": "UM-UC-3", "result": 1830, "unit": "nM"},
      {"measurement": "Tumor Growth Inhibition (%) or Regression (−%)", "setting": "SW837 xenograft; 15 mg/kg BID", "result": "−17", "unit": "%"},
      {"measurement": "Tumor Growth Inhibition (%) or Regression (−%)", "setting": "SW837 xenograft; 30 mg/kg BID", "result": "−46.1", "unit": "%"},
      {"measurement": "Tumor Growth Inhibition (%) or Regression (−%)", "setting": "SW837 xenograft; 30 mg/kg QD", "result": "−10.8", "unit": "%"},
      {"measurement": "In Vivo Anti-Tumor Activities", "setting": "SW837 xenograft; Example 1 30 mg/kg QDx28", "result": "−51.8"},
      {"measurement": "Tumor Growth Inhibition (%) or Regression (−%)", "setting": "MiaPaca-2 xenograft; 10 mg/kg BID", "result": 75.48, "unit": "%"},
      {"measurement": "Tumor Growth Inhibition (%) or Regression (−%)", "setting": "MiaPaca-2 xenograft; 10 mg/kg QD", "result": 44.4, "unit": "%"},
      {"measurement": "Tumor Growth Inhibition (%) or Regression (−%)", "setting": "MiaPaca-2 xenograft; 30 mg/kg BID", "result": "−49.6", "unit": "%"},
      {"measurement": "Tumor Growth Inhibition (%) or Regression (−%)", "setting": "MiaPaca-2 xenograft; 30 mg/kg QD", "result": 95.6, "unit": "%"},
      {"measurement": "In Vivo Anti-Tumor Activities", "setting": "MiaPaca-2 xenograft; Example 1 30 mg/kg QDx28", "result": 91.22}
    ]}
  ]
}
